Measured values as given in US12662491B2 (Redona Therapeutics, Inc., priority 2020, dated 2026).

The compounds below were run against T1, Zcchc11 enzyme (Homo sapiens, UniProt Q5TAX3) (assay: TUTase assay (Zcchc11 assay, Lin28a-dependent polyuridylation of pre-let-7)). Settings: LIN28A 10 nM, Zcchc11 0.2 nM, 5′-fluorescein pre-let-7 miRNA 2 nM, UTP 5 uM, room temperature, 30 minutes pre-incubation; read-out: Potency Lin28a-dep Z11 IC50.
T1 construct: made in house; host or cells: HEK293 cells (Zcchc11); E. coli Rosetta II (LIN28A)
T1 sequence (Q5TAX3 212-1420): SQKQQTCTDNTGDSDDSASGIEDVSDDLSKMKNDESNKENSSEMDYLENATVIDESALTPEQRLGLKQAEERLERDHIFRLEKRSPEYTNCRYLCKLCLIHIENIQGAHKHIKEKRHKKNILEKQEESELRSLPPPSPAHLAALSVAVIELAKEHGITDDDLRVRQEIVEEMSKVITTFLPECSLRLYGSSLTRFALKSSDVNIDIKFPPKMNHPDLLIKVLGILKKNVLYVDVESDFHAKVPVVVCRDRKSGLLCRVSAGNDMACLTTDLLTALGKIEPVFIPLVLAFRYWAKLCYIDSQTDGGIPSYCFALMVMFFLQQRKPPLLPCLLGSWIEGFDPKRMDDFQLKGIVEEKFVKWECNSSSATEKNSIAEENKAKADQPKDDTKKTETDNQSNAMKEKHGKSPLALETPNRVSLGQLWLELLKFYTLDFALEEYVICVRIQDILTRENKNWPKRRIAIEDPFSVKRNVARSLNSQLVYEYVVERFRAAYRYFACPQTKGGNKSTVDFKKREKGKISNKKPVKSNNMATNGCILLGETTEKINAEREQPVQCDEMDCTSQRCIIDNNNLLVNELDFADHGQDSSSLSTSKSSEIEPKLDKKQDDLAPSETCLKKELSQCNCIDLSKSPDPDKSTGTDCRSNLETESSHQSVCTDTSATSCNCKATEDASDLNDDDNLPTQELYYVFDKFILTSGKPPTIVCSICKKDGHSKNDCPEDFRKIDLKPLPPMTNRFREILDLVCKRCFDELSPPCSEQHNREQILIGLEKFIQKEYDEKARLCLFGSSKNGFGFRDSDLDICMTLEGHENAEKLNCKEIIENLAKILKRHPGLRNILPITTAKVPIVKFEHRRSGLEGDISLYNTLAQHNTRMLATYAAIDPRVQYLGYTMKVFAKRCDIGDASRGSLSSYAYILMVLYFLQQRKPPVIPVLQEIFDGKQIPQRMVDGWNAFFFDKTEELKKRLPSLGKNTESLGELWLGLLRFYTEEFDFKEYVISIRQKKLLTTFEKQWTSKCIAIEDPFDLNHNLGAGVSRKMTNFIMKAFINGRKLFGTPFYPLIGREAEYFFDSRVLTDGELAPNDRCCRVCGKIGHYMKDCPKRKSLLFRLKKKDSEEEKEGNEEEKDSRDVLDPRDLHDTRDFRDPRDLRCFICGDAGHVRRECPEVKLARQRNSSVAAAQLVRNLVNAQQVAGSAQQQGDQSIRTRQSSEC
Format: biochemical
In short: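 Polyuridylation measured as fluorescein loss when a rhodamine-labelled A20 probe anneals to U-tails added to fluorescein pre-let-7 (2 nM). Reaction: truncated Zcchc11 0.2 nM, E. coli-made LIN28A 10 nM, UTP 5 uM, HEPES pH 7.3, room temperature. Initial rates fitted to four-parameter IC50.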

IC50 | Structure (SMILES)
≤ 1000 nM | Cc1cccnc1OC[C@H]1CCCN1c1cc2c(cc1F)c(=O)c(C(=O)O)cn2-c1ccc(OCCN(C)C)cc1 [Example 17, (R)-1-(4-(2-(dimethylamino)ethoxy)phenyl)-6-fluoro-7-(2-(((3-methylpyridin-2-yl)oxy)methyl)pyrrolidin-1-yl)-4-oxo-1,4-dihydroquinoline-3-carboxylic acid]
≤ 1000 nM | O=C(O)c1cn(-c2cnc(O)cn2)c2cc(N3CCC[C@@H]3COc3ccccn3)c(Cl)cc2c1=O [Example 33, 6-chloro-1-(5-hydroxypyrazin-2-yl)-4-oxo-7-[(2R)-2-[(pyridin-2-yloxy)methyl]pyrrolidin-1-yl]-1,4-dihydroquinoline-3-carboxylic acid]
≤ 1000 nM | CN(C)C1CN(c2ccc(-n3cc(C(=O)O)c(=O)c4cc(F)c(N5C[C@@H](c6cccnc6)C[C@@H]5COc5ncccc5Cl)cc43)cn2)C1 [Example 62, 7-[(2R,4R)-2-[[(3-chloropyridin-2-yl)oxy]methyl]-4-(pyridin-3-yl)pyrrolidin-1-yl]-1-[6-[3-(dimethylamino)azetidin-1-yl]pyridin-3-yl]-6-fluoro-4-oxoquinoline-3-carboxylic acid]
≤ 1000 nM | COc1ccc(Cl)c(OCC2C3CC(C3)N2c2cc3c(cc2Cl)c(=O)c(C(=O)O)cn3-c2ccc(N3CC(N(C)C)C3)nc2)n1 (stereo not shown) [Example 64, 6-chloro-7-(3-(((3-chloro-6-methoxypyridin-2-yl)oxy)methyl)-2-azabicyclo[2.1.1]hexan-2-yl)-1-(6-(3-(dimethylamino)azetidin-1-yl)pyridin-3-yl)-4-oxo-1,4-dihydroquinoline-3-carboxylic acid]
≤ 1000 nM | CN(C)C1CN(c2ccc(-n3cc(C(=O)O)c(=O)c4cc(Cl)c(N5CC6(CCC6)CC5COc5ncccc5Cl)cc43)cn2)C1 (stereo not shown) [Example 57, 6-Chloro-7-(7-(((3-chloropyridin-2-yl)oxy)methyl)-6-azaspiro[3.4]octan-6-yl)-1-(6-(3-(dimethylamino)azetidin-1-yl)pyridin-3-yl)-4-oxo-1,4-dihydroquinoline-3-carboxylic acid]

Same assay, conditions: Lin28a-dependent Zcchc11 (Z11) TUTase activity; read-out: Potency Lin28a-dep Z11 IC50

IC50 | Structure (SMILES)
10000 to 50000 nM | CN(C)C1CN(c2ccc(-n3cc(C(=O)O)c(=O)c4cc(C#N)c(N5C(=O)CC[C@@H]5COc5ncccc5Cl)cc43)cn2)C1 [Compound 220, 7-[(2R)-2-[[(3-chloropyridin-2-yl)oxy]methyl]-5-oxopyrrolidin-1-yl]-6-cyano-1-[6-[3-(dimethyl-amino)azetidin-1-yl]pyridin-3-yl]-4-oxoquinoline-3-carboxylic acid]
≤ 1000 nM | O=C(O)c1cn2c3cc(c(Cl)cc3c1=O)N1CCC[C@@H]1COc1nc(ccc1Cl)OCCCNc1ccc-2cn1 [Compound 300, (R)-26,63-dichloro-24-oxo-21,24-dihydro-5,7-dioxa-11-aza-2(1,7)-quinolina-1(5,2),6(2, 6)-dipyridina-3(1,2)-pyrrolidina cyclo-undecaphane-23-carboxylic acid]
1000 to 10000 nM | O=C(O)c1cn(-c2cc(F)ccc2Cl)c2cc(N3CCC[C@@H]3COc3ccccn3)c(F)cc2c1=O [Compound 153, (R)-1-(2-chloro-5-fluorophenyl)-6-fluoro-4-oxo-7-(2-((pyridin-2-yloxy)methyl)pyrrolidin-1-yl)-1,4-dihydro-quinoline-3-carboxylic acid]
≤ 1000 nM | CN(C)C1CN(c2ccc(-n3cc(C(=O)O)c(=O)c4cc(F)c(N5C6CC6C[C@@H]5COc5nc6c(ccn6C)cc5Cl)cc43)cn2)C1 (stereo partly drawn) [Compound 334, 7-[(3R)-3-[({5-chloro-1-methylpyrrolo [2,3-b]pyridin-6-yl}oxy)methyl]-2-azabicyclo [3.1.0]hexan-2-yl]-1-{6-[3-(dimethyl-amino)azetidin-1-yl]pyridin-3-yl}-6-fluoro-4-oxoquinoline-3-carboxylic acid]
≤ 1000 nM | CC1CCN(c2cc3c(cc2Cl)c(=O)c(C(=O)O)cn3-c2ccnc(N)c2)[C@H]1COc1nc(N(C)C)ccc1Cl (stereo partly shown) [Compound 333]
≤ 1000 nM | COc1ccnc(OC[C@H]2C[C@H]3C[C@H]3N2c2cc3c(cc2F)c(=O)c(C(=O)O)cn3-c2ccc(N(C)C)nc2)c1Cl [Compound 265, 7-((1R,3R,5R)-3-(((3-chloro-4-methoxy-pyridin-2-yl)oxy)methyl)-2-azabicyclo [3.1.0]hexan-2-yl)-1-(6-(dimethyl-amino)pyridin-3-yl)-6-fluoro-4-oxo-1,4-dihydro-quinoline-3-carboxylic acid]
1000 to 10000 nM | COc1ccc(Cl)c(OCC23CC(CN2c2cc4c(cc2Cl)c(=O)c(C(=O)O)cn4-c2ccnc(N)c2)C3)n1 [Compound 177, 1-(2-aminopyridin-4-yl)-6-chloro-7-(1-[[(3-chloro-6-methoxy-pyridin-2-yl)oxy]methyl]-2-azabicyclo [2.1.1]hexan-2-yl)-4-oxoquinoline-3-carboxylic acid]
≤ 1000 nM | CN(C)C1CN(c2ccc(-n3cc(C(=O)O)c(=O)c4cc(Cl)c(N5C(COc6ncccc6Cl)CCS5(=O)=O)cc43)cn2)C1 (stereo not shown) [Compound 311, 6-chloro-7-(3-(((3-chloropyridin-2-yl)oxy)methyl)-1,1-dioxidoiso-thiazolidin-2-yl)-1-(6-(3-(dimethyl-amino)azetidin-1-yl)pyridin-3-yl)-4-oxo-1,4-dihydro-quinoline-3-carboxylic acid]
≤ 1000 nM | CN(C)C1CN(c2ccc(-n3cc(C(=O)O)c(=O)c4cc(Cl)c(N5CCC(C)(C)C5COc5ncccc5Cl)cc43)cn2)C1 (stereo not shown) [Compound 259, 6-chloro-7-(2-(((3-chloropyridin-2-yl)oxy)methyl)-3,3-dimethyl-pyrrolidin-1-yl)-1-(6-(3-(dimethyl-amino)azetidin-1-yl)pyridin-3-yl)-4-oxo-1,4-dihydro-quinoline-3-carboxylic acid]

Same assay, conditions: Lin28a-dependent Zcchc11 (Z11) TUTase assay; read-out: Potency Lin28a-dep Z11 IC50

IC50 | Structure (SMILES)
1000 to 10000 nM | O=C(O)c1cn(C2CCNCC2)c2cc(N3CCC[C@@H]3COc3ncccc3Cl)c(Cl)cc2c1=O [Example 368, 6-chloro-7-[(2R)-2-{[(3-chloropyridin-2-yl)oxy]methyl}pyrrolidin-1-yl]-4-oxo-1-(piperidin-4-yl)-1,4-dihydroquinoline-3-carboxylic acid]
≤ 1000 nM | CN(C)C1CN(c2ccc(-n3cc(C(=O)O)c(=O)c4cc(Cl)c(N5CC(c6ccc(O)nc6)C[C@@H]5COc5ncccc5Cl)cc43)cn2)C1 (stereo partly shown) [Example 608]
≤ 1000 nM | CN(C)C1CN(c2ccc(-n3cc(C(=O)O)c(=O)c4cc(Cl)c(N5CCC[C@@H]5CS(=O)(=O)c5ncccc5Cl)cc43)cn2)C1 [Example 618, (R)-6-chloro-7-(2-(((3-chloropyridin-2-yl)sulfonyl)methyl)pyrrolidin-1-yl)-1-(6-(3-(dimethylamino)azetidin-1-yl)pyridin-3-yl)-4-oxo-1,4-dihydroquinoline-3-carboxylic acid]
≤ 1000 nM | Cc1cccc(-n2cc(C(=O)O)c(=O)c3cc(F)c(N4CCC[C@@H]4COc4ccccn4)cc32)c1 [Example 391, (R)-6-fluoro-4-oxo-7-(2-((pyridin-2-yloxy)methyl)pyrrolidin-1-yl)-1-(m-tolyl)-1,4-dihydroquinoline-3-carboxylic acid]
≤ 1000 nM | CN(C)C1CN(c2ncc(-n3cc(C(=O)O)c(=O)c4cc(Cl)c(N5CCC[C@@]5(C)COc5ncccc5Cl)nc43)cn2)C1 [Example 623, (S)-6-chloro-7-(2-(((3-chloropyridin-2-yl)oxy)methyl)-2-methylpyrrolidin-1-yl)-1-(2-(3-(dimethylamino)azetidin-1-yl)pyrimidin-5-yl)-4-oxo-1,4-dihydro-1,8-naphthyridine-3-carboxylic acid]
